In US10640544B2, “Antibody-coupled cyclic peptide tyrosine tyrosine compounds as modulators of neuropeptide Y receptors” (JANSSEN PHARMACEUTICA NV, priority 2016, dated 2020):

Tests used:
[1] = OGTT in DIO mice after 8 days of treatment (blood glucose, insulin); format: in vivo, mouse; settings: 8 days treatment, 0.3 nmol/kg s.c. every day
Method: (§1) Compound 1 was evaluated for its ability to reduce foot intake and body weight and improve glucose homeostasis on repeat dosing in male DIO C57Bl/6 mice over a period of 8 days. Male DIO C57BL/6N mice (20 weeks of age, 14 weeks on high fat diet) were obtained from Taconic Laboratory. […] Animals were acclimated to the facility for at least one week prior to the start of the experiment.
(§2) The day prior to dosing, mice were grouped based on individual body weights. At 3:00-4:[…] for each of the next 8 days, animals and food intake were weighed. […] After 8 days, mice are fasted for 5 hours and then given a 2 g/kg bolus of glucose orally at t=0. At t=0, 30, 60, 90, and 120 minutes post glucose challenge blood glucose is measured and at t=0, 30, and 90 minutes blood in drawn to measure plasma insulin. […] All data are presented as the mean±SEM (FIG. 7, FIG. 8, and Tables 8-11).

[2] = Weight loss in diet-induced obese mice: chronic dosing (body weight, fed blood glucose); format: in vivo, mouse; settings: DIO mice, after 8 days of treatment; 0.3 nmol/kg s.c. every day
Method: as §1, §2

[3] = Single dose effect on food intake and body weight in Sprague-Dawley rats; format: in vivo, rat; set-up: body weight change: unit not given here; settings: single dose 0.3 nmol/kg s.c.
Method: Compound 1 was evaluated for its ability to reduce foot intake and body weight in Sprague-Dawley after a single dose. The animals were obtained from Charles River Labs (Wilmington, Mass.) at 200-225 g body weight and used within one week of delivery. They were housed one per cage on alpha dry bedding and a plastic tube for enrichment in a temperature-controlled room with 12-hour light/dark cycle. […] Animal weights were taken and recorded for each rat prior to dosing.
Body weights and food intake were measured 1, 2 and 3 days after dosing and the percentages of weight loss and reduction in food intake were calculated. […] All data are presented as the mean±SEM (Tables 18-20).

Substance: Dulaglutide: long-acting GLP-1 receptor agonist, comparator
- blood glucose Delta AUC (OGTT) [1]: 6668 ± 1846 mg/dl/120 min
- blood glucose Total AUC (OGTT) [1]: 15758 ± 1054 mg/dl/120 min
- blood glucose during OGTT ([1]; 0 min after glucose challenge): 76 ± 9 mg/dL
- insulin during OGTT ([1]; 0 min after glucose challenge): 0.6 ± 0.1 ng/mL
- blood glucose during OGTT ([1]; 30 min after glucose challenge): 151 ± 14 mg/dL
- insulin during OGTT ([1]; 30 min after glucose challenge): 1.7 ± 0.2 ng/mL
- blood glucose during OGTT ([1]; 60 min after glucose challenge): 174 ± 17 mg/dL
- blood glucose during OGTT ([1]; 90 min after glucose challenge): 104 ± 10 mg/dL
- insulin during OGTT ([1]; 90 min after glucose challenge): 0.7 ± 0.2 ng/mL
- blood glucose during OGTT ([1]; 120 min after glucose challenge): 119 ± 9 mg/dL
- fed Blood Glucose [2]: 114 ± 13 mg/dL
- Total Food Consumption over three days [3]: 87.4 ± 2.0
- body weight change ([3]; Day 0): 0.0 ± 0.0
- daily food intake ([3]; Day 0): 26.6 ± 0.8
- absolute body weight ([3]; Day 0, in g (unit assumed)): 270.3 ± 3.0
- body weight change ([3]; Day 1): 10.6 ± 1.6
- daily food intake ([3]; Day 1): 27.3 ± 1.2
- absolute body weight ([3]; Day 1, in g (unit assumed)): 280.8 ± 4.2
- body weight change ([3]; Day 2): 22.5 ± 0.8
- daily food intake ([3]; Day 2): 30.0 ± 0.7
- absolute body weight ([3]; Day 2, in g (unit assumed)): 292.47 ± 3.6
- body weight change ([3]; Day 3): 28.7 ± 0.6
- daily food intake ([3]; Day 3): 30.1 ± 0.7
- absolute body weight ([3]; Day 3, in g (unit assumed)): 299.0 ± 3.3
- body weight change ([3]; Day −1 (relative to Day 0)): −6.3 ± 0.8
- absolute body weight ([3]; Day −1, in g (unit assumed)): 264.0 ± 3.1
